# Where “and” joins values, the source holds several entries; their conditions need not be identical. Equal values may be shown once. Read-outs that look alike come from different tables or passages of the source.
# Experiments:
# [1] = tested on: Leishmania braziliensis promastigotes; assay: Leishmanicidal activity, promastigote growth (SYBR Green, 72 h); assay type: cell-based, Leishmania (V.) braziliensis (MHOM/BR/1975/M2904); conditions: L. braziliensis promastigotes, max 200 μM
# In short: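 Promastigotes seeded at 4 × 10^6 parasites/mL with compounds in decreasing concentrations up to 200 μM, 0.5% DMSO final, 72 h.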
# [2] = target: T1, HsDHODH (Homo sapiens, UniProt Q02127); assay: Selectivity assay: HsDHODH single-dose inhibition (DCIP reduction); assay type: biochemical
# T1 construct: made in house
# T1 sequence (Q02127 whole entry): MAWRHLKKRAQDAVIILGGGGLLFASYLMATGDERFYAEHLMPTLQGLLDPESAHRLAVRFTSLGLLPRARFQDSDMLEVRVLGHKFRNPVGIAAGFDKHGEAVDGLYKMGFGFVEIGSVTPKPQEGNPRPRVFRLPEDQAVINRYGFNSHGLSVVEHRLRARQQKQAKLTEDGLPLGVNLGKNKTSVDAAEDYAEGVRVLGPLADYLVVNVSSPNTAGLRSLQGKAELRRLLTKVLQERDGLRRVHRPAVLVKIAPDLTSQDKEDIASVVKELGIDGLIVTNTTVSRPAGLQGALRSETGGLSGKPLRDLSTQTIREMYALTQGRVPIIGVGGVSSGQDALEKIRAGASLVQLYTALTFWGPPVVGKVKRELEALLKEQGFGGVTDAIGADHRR
# In short: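 Recombinant human DHODH at 20 nM final, purified by Ni-NTA affinity, tested at a single compound concentration in triplicate. DCIP reduction followed at 610 nm every 3 s over 60 s. Velocity expressed as % activity relative to enzyme control without compound.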
# [3] = Cell viability / cytotoxicity assay (PrestoBlue, 72 h); assay type: cell-based; conditions: human; THP-1 cell line, 72 h, max 200 μM; read-out: CC50
# In short: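 PMA-differentiated THP-1 cells (150 ng/mL PMA, 48 h; then 24 h in fresh medium) were exposed to compounds in serial dilution from 200 μM for 72 h at 37 °C, 5% CO2. Viability was read by PrestoBlue fluorescence (ex 560/em 590 nm) after 2 h.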
# [4] = for Calculated T-half (min), Average / Calculated T-half (min), n=1 / Calculated T-half (min), n=2: mouse liver microsomes (CD1 male), test conc 1 µM; for Calculated T-half (min), Average: average of n=1 and n=2; for Modified T-half (min), Average / Remarks (mouse microsomal stability study): 0.4 mg/ml; for Modified T-half (min), Average: limited to T Half range 3.00 - […]; for Remarks (mouse microsomal stability study): NCF = no cofactor control; for mouse liver microsomes T-half: NADPH, 1 μM; for Raw data: analyte peak area, T=0: 0 min; for Raw data: analyte peak area, T=0 / Raw data: analyte peak area, T=5 / Raw data: analyte peak area, T=10 / Raw data: analyte peak area, T=20 / Raw data: analyte peak area, T=30 / Raw data: analyte peak area, T=60: raw LC-MS area; for Raw data: analyte peak area, T=5: 5 min; for Raw data: analyte peak area, T=10: 10 min; for Raw data: analyte peak area, T=20: 20 min; for Raw data: analyte peak area, T=30: 30 min; for Raw data: analyte peak area, T=60: 60 min
# [5] = in vitro; conditions: for recovery at 6 h, 10 µM / Papp: PAMPA; for Papp: pH 7.4, permeability, PBS pH 7.4, 10 μM, 6 h; for LogPe (cm/sec) n1: replicate n1, calculation section; for LogPe (cm/sec) n1 / LogPe (cm/sec) n2: PBS pH 7.4/7.4, 6h; for LogPe (cm/sec) n2: replicate n2, calculation section; for Pe (nm/sec) n=1 / % Recovery n=1: replicate n=1; for Pe (nm/sec) n=1 / Pe (nm/sec) n=2: 10µM (5% DMSO); for Pe (nm/sec) n=2 / % Recovery n=2: replicate n=2
# Procedure: Solutions of the compounds were prepared in duplicate by diluting the stock solutions (10 mM) in phosphate buffered saline (PBS) pH 7.4 at a final concentration of 10 μM (5% DMSO). The solutions diluted in PBS pH 7.4 were then added to the donor portion of the plate (300 μL/well), while in the acceptor portion PBS pH 7.4 (200 μL/well) was added. The two portions of the plate were then coupled, and the system was incubated for 6 h at room temperature. Samples of the initial donor solution (T0) were collected at the beginning (T0) and stored at 5 °C. The final concentrations of compounds in the donor, acceptor and T0 wells were quantified by LC-MS/MS.
# [6] = Kinetic solubility assay in PBS pH 7.4; assay type: physicochemical; conditions: kinetic from dmso stock, 1% DMSO; for solubility kinetic at 2 h: 25 °C, pH 7.4, aqueous buffer, PBS pH 7.4, 200 μM test conc, 2 h at 25 °C; for solubility at 2 h: aqueous buffer, PBS pH 7.4, 200 µM, 2 hours at 25°C
# Procedure: The plate was incubated for 2 h at 25 °C. The precipitates on the incubation plate were removed by filtration and the filtrates were quantified by LC-MS/MS. Calibration curves were prepared for each compound by using 5–6 points. Samples were analyzed by UV–vis.
# [7] = Mouse liver microsome stability in the absence of cofactors (NCF); conditions: 60 min, no cofactor (NCF); for remaining at 1 h, 1 µM: mouse, microsomes, pH 7.4, % Remaining, T=60 NCF; for Raw data: analyte peak area, T=60 NCF: mouse liver microsomes, raw LC-MS area
# [8] = read-out: Single dose (0h) % activity
# [9] = read-out: Single dose (4h) % activity
# [10] = 0.4 mg/ml protein, replicate n=1
# [11] = 0.4 mg/ml protein, replicate n=2
# [12] = pH 7.4, % Recovery n=1, replicate n=1, 10µM, PBS pH 7.4/7.4, 6h at room temperature
# [13] = pH 7.4, % Recovery n=2, replicate n=2, 10µM, PBS pH 7.4/7.4, 6h at room temperature
# [14] = pH 7.4, Avg % Recovery, average of n=2, 10µM, PBS pH 7.4/7.4, 6h at room temperature
# [15] = average of n=2, 10µM, PBS pH 7.4/7.4, 6h at room temperature
# [16] = PBS pH 7.4/7.4, 6h at room temperature, LC-MS/MS
# [17] = 10µM, PBS pH 7.4/7.4, 6h at room temperature
# [18] = n=1, mouse liver microsomes, n=1
# [19] = n=2, mouse liver microsomes, n=2
# [20] = mouse liver microsomes, replicate 1 (left block)
# [21] = mouse liver microsomes, replicate 2 (right block)
smiles,measurement,setting,value
"COc1cc(C=C2C(=O)NC(=O)NC2=O)ccc1O [2c, 5-(4-Hydroxy-3-methoxybenzylidene)pyrimidine-2,4,6(1H,3H,5H)-trione]",EC50,[1]; Leishmania braziliensis,> 200 µM
same,activity at 100 µM,[2]; [8],80 ± 9%
same,activity at 100 µM,[2]; [9],83 ± 8%
same,CC50 at 72 h,[3],> 200 µM
same,"Calculated T-half (min), Average",[4]; 0.4 mg/ml protein,6.0 min
same,"Calculated T-half (min), n=1",[4]; [10],6.12 min and 6.1 min
same,"Calculated T-half (min), n=2",[4]; [11],5.82 min and 5.8 min
same,"Calculated CLint, app (µl/min/mg), n=1","[4]; mouse liver microsomes, 0.4 mg/ml protein, 1 µM, replicate n=1",283.1 µL/min/mg
same,"Calculated CLint, app (µl/min/mg), n=2","[4]; mouse liver microsomes, 0.4 mg/ml protein, 1 µM, replicate n=2",297.8 µL/min/mg
same,"Modified T-half (min), Average","[4]; mouse liver microsomes, 1 µM",6.0 min
same,Remarks (mouse microsomal stability study),"[4]; mouse liver microsomes, 1 µM",Low NCF
same,mouse liver microsomes T-half,[4]; mouse liver microsomes,6.0 min and 6 min
same,"recovery at 6 h, 10 µM",[5]; [12],86.6%
same,"recovery at 6 h, 10 µM",[5]; [13],96%
same,"recovery at 6 h, 10 µM",[5]; [14],91.3%
same,Papp,[5],0.84 ×10⁻⁶ cm/s
same,Avg Log Pe (cm/sec),[5]; [15],-6.08 cm/sec and -6.1 cm/sec
same,Avg Pe,[5]; [15],0.843 ×10⁻⁶ cm/s and 0.84 ×10⁻⁶ cm/s
same,LogPe (cm/sec) n1,[5]; 10µM,-6.16 cm/sec
same,LogPe (cm/sec) n2,[5]; 10µM,-6.00 cm/sec
same,Pe (nm/sec) n=1,[5]; [16],6.94 nm/s and 6.9 nm/s
same,% Recovery n=1,[5]; [17],86.6%
same,Pe (nm/sec) n=2,[5]; [16],9.91 nm/s and 9.9 nm/s
same,% Recovery n=2,[5]; [17],96.0%
same,solubility kinetic at 2 h,[6],195 µM
same,solubility at 2 h,[6],51 µg/mL
same,"remaining at 1 h, 1 µM",[7]; [18],52.4%
same,"remaining at 1 h, 1 µM",[7]; [19],51.5%
"O=C1NC(=O)C(=C/C=C/c2ccccc2)C(=O)N1 [2i, (E)-5-(3-Phenylallylidene)pyrimidine-2,4,6(1H,3H,5H)-trione]",EC50,[1],10.5 ± 3.5 µM
same,EC50,[1]; Leishmania braziliensis,11 ± 5 µM
same,inhibition of HsDHODH in single-dose assays,"[2]; 100 μM, with or without 4-h incubation",no inhibition
same,activity at 100 µM,[2]; [8],93 ± 11%
same,activity at 100 µM,[2]; [9],91 ± 9%
same,CC50 at 72 h,[3],193 ± 67 µM
same,"Calculated T-half (min), Average",[4]; 0.4 mg/ml protein,2.7 min
same,"Calculated T-half (min), n=1",[4]; [10],2.74 min and 2.7 min
same,"Calculated T-half (min), n=2",[4]; [11],2.73 min and 2.7 min
same,"Raw data: analyte peak area, T=0",[4]; [20],4760
same,"Raw data: analyte peak area, T=0",[4]; [21],4151
same,"Modified T-half (min), Average","[4]; mouse liver microsomes, 1 µM",<3.0 min
same,Remarks (mouse microsomal stability study),"[4]; mouse liver microsomes, 1 µM",Very fast metabolism; Low NCF
same,"Raw data: analyte peak area, T=5",[4]; [20],1438
same,"Raw data: analyte peak area, T=5",[4]; [21],1160
same,"Raw data: analyte peak area, T=10",[4]; [20],0
same,"Raw data: analyte peak area, T=10",[4]; [21],0
same,"Raw data: analyte peak area, T=20",[4]; [20],0
same,"Raw data: analyte peak area, T=20",[4]; [21],0
same,"Raw data: analyte peak area, T=30",[4]; [20],0
same,"Raw data: analyte peak area, T=30",[4]; [21],0
same,"Raw data: analyte peak area, T=60",[4]; [20],0
same,"Raw data: analyte peak area, T=60",[4]; [21],0
same,mouse liver microsomes T-half,[4]; mouse liver microsomes,<3.0 min
same,"recovery at 6 h, 10 µM",[5]; [12],14.3%
same,"recovery at 6 h, 10 µM",[5]; [13],15.8%
same,"recovery at 6 h, 10 µM",[5]; [14],15%
same,Papp,[5],5.75 ×10⁻⁶ cm/s
same,Avg Log Pe (cm/sec),[5]; [15],-5.2 cm/sec and -5.24 cm/sec
same,Avg Pe,[5]; [15],5.75 ×10⁻⁶ cm/s
same,LogPe (cm/sec) n1,[5]; 10µM,-5.25 cm/sec
same,LogPe (cm/sec) n2,[5]; 10µM,-5.23 cm/sec
same,Pe (nm/sec) n=1,[5]; [16],56.6 nm/s and 56.58 nm/s
same,% Recovery n=1,[5]; [17],14.26%
same,Pe (nm/sec) n=2,[5]; [16],58.4 nm/s and 58.42 nm/s
same,% Recovery n=2,[5]; [17],15.77%
same,solubility kinetic at 2 h,[6],41.4 µM
same,solubility at 2 h,[6],10 µg/mL
same,"Raw data: analyte peak area, T=60 NCF",[7]; replicate 1 (left block),1230
same,"Raw data: analyte peak area, T=60 NCF",[7]; replicate 2 (right block),835
same,"remaining at 1 h, 1 µM",[7]; [18],26.3%
same,"remaining at 1 h, 1 µM",[7]; [19],19.3%
"O=C1NC(=O)C(=Cc2ccc(-c3ccccc3F)[nH]2)C(=O)N1 [2h, 5-((5-(2-Fluorophenyl)-1H-pyrrol-2-yl)methylene)pyrimidine-2,4,6(1H,3H,5H)-trione]",EC50,[1],5 ± 2 µM
same,EC50,[1]; Leishmania braziliensis,5.4 to 23 µM
same,activity at 100 µM,[2]; [8],100 ± 11%
same,activity at 100 µM,[2]; [9],71 ± 7%
same,CC50 at 72 h,[3],> 200 µM
same,"Calculated T-half (min), Average",[4]; 0.4 mg/ml protein,1.7 min
same,"Calculated T-half (min), n=1",[4]; [10],1.70 min and 1.7 min
same,"Calculated T-half (min), n=2",[4]; [11],1.71 min and 1.7 min
same,"Modified T-half (min), Average","[4]; mouse liver microsomes, 1 µM",<3.0 min
same,Remarks (mouse microsomal stability study),"[4]; mouse liver microsomes, 1 µM",Very fast metabolism; Low NCF
same,mouse liver microsomes T-half,[4]; mouse liver microsomes,<3.0 min
same,"recovery at 6 h, 10 µM",[5]; [12],38%
same,"recovery at 6 h, 10 µM",[5]; [13],43.3%
same,"recovery at 6 h, 10 µM",[5]; [14],40.6%
same,Papp,[5],1.54 ×10⁻⁶ cm/s
same,Avg Log Pe (cm/sec),[5]; [15],-5.8 cm/sec and -5.83 cm/sec
same,Avg Pe,[5]; [15],1.54 ×10⁻⁶ cm/s and 1.539 ×10⁻⁶ cm/s
same,LogPe (cm/sec) n1,[5]; 10µM,-5.97 cm/sec
same,LogPe (cm/sec) n2,[5]; 10µM,-5.70 cm/sec
same,Pe (nm/sec) n=1,[5]; [16],10.8 nm/s and 10.80 nm/s
same,% Recovery n=1,[5]; [17],37.96%
same,Pe (nm/sec) n=2,[5]; [16],20.0 nm/s and 19.97 nm/s
same,% Recovery n=2,[5]; [17],43.27%
same,solubility kinetic at 2 h,[6],4.63 µM
same,solubility at 2 h,[6],1.6 µg/mL
same,"remaining at 1 h, 1 µM",[7]; [18],1%
same,"remaining at 1 h, 1 µM",[7]; [19],1.5%
"O=C1NC(=O)C(=Cc2ccc(O)c([N+](=O)[O-])c2)C(=O)N1 [2d, 5-(4-Hydroxy-3-nitrobenzylidene)pyrimidine-2,4,6(1H,3H,5H)-trione]",EC50,[1]; Leishmania braziliensis,152 ± 28 µM
same,activity at 100 µM,[2]; [8],90 ± 10%
same,activity at 100 µM,[2]; [9],92 ± 9%
same,CC50 at 72 h,[3],> 200 µM
same,Remarks (mouse microsomal stability study),"[4]; mouse liver microsomes, 1 µM",Poor detection sensitivity/Compound might be unstable in assay matrix
same,Remarks (PAMPA),"[5]; 10µM, PBS pH 7.4/7.4, 6h at room temperature, LC-MS/MS",Poor detection sensitivity/Compound might be unstable in assay matrix
same,solubility kinetic at 2 h,[6],190 µM
same,solubility at 2 h,[6],52.7 µg/mL

# — publication PMC12481576, “Barbituric Acid Derivatives as Covalent Inhibitors of Leishmania braziliensis Dihydroorotate Dehydrogenase” (Journal of Medicinal Chemistry, 2025)
